Laboratory results reported in ChEMBL document CHEMBL5729357, “Isothiazolo[5,4-D]pyrimidine compound as IRAK4 inhibitor” (2022).

Target: T1, Interleukin-1 receptor-associated kinase 4 (Homo sapiens, UniProt Q9NWZ3)
T1 sequence (Q9NWZ3 whole entry): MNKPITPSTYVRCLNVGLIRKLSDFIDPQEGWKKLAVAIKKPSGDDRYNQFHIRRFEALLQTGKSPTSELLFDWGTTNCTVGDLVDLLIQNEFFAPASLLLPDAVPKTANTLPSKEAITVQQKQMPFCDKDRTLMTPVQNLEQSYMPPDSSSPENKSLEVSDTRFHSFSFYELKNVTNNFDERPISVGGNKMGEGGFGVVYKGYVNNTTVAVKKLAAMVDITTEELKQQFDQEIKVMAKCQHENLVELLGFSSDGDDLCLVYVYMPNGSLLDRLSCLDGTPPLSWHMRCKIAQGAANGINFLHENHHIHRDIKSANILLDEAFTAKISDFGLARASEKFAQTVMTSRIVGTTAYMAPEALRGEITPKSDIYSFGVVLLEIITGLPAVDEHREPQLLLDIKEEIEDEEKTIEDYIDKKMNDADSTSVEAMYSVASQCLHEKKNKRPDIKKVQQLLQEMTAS
Test: In Vitro Enzymatic Activity Evaluation: The inhibitory activity of the test compounds against human IRAK4 was evaluated by measuring IC50 values in a 33P-labeled kinase activity assay (Reaction Biology Corp).Buffer conditions: 20 mM Hepes (pH 7.5), 10 mM MgCl2, 1 mM EGTA, 0.02% Brij35, 0.02 mg/mL BSA, 0.1 mM Na3VO4, 2 mM DTT, 1% DMSO.Procedures: The test compound was dissolved in DMSO at room temperature to prepare a 10 mM solution for later use. The substrate was dissolved in fresh buffer, to which the kinase was added and mixed well. The DMSO solution containing the test compound was added to the above mixed reaction system by an acoustic technique (Echo 550). The concentrations of the compounds in reaction system were 10 μM, 3.33 μM, 1.11 μM, 0.370 μM, 0.123 μM, 41.2 nM, 13.7 nM, 4.57 nM, 1.52 nM, and 0.508 nM. After 15 minutes of incubation, the reaction was started by adding 33P-ATP (activity: 0.01 μCi/μL; the corresponding concentration is listed in Table 1). Supplier's catalog number, lot number and concentration information in the reaction system for IRAK4 and its substrate are listed in Table 1. After 120 minutes of reaction at room temperature, the resulting solution was loaded on P81 ion exchange chromatography paper sheet (Whatman #3698-915). […]

IC50 [nM] | SMILES
231 | Cc1nsc2nc(Nc3cnn(C4CCOCC4)c3)nc(N[C@H]3CC[C@H](N4C[C@H]5C[C@@H]4CN5C(C)C)CC3)c12
13.5 | Cc1nsc2nc(Nc3cnn(C4(C)COC4)c3)nc(N[C@H]3CC[C@H](N4CCOCC4)CC3)c12
